Reference: publication PMC11440035, “Interaction of myricetin, ampelopsin (dihydromyricetin), and their sulfate metabolites with serum albumin, cytochrome P450 (CYP2C9, 2C19, and 3A4) enzymes, and organic anion‐transporting polypeptides (OATP1B1 and OATP2B1)” (Pharmacology Research & Perspectives, 2024)
Values joined by “and” are separate entries in the source; they are usually repeats but may differ in a detail not shown here. Identical values can stand only once.

Target: T1, OATP1B1 (Homo sapiens, UniProt Q9Y6L6)
T1 construct: expressed in transfected cells; host or cells: A431
T1 sequence (Q9Y6L6 1-691): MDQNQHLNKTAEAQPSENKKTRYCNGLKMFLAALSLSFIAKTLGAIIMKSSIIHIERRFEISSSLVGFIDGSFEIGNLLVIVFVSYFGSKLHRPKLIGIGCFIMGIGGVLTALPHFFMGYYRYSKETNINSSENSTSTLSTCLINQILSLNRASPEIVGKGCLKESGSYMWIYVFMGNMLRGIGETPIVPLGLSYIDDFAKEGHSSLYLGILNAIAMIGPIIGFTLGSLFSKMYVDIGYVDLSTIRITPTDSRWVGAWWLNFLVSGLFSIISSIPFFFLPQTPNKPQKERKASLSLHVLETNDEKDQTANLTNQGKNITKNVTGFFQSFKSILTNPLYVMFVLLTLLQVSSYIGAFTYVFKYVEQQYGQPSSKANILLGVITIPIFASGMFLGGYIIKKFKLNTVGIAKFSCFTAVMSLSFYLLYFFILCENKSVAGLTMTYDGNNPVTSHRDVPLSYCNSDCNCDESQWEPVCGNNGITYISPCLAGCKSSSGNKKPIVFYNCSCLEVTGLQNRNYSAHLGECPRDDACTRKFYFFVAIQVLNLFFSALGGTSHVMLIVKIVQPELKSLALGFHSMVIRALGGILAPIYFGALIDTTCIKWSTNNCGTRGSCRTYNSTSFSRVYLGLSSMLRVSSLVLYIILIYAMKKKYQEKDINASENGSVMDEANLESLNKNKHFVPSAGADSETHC
Assay: Inhibition of OATP1B1-mediated disulfopyrene uptake in A431 cells
Format: cell-based
Settings: for decrease in the transport activity of OATP1B1 / inhibition of OATP1B1 in words: 25 μM flavonoid; for IC50: disulfopyrene 10 μM, 10 min, HBSS pH 7.4, A431-OATP1B1 cells
Procedure: Human A431 cells overexpressing OATPs (OATP1B1 or OATP2B1) and their mock‐transfected controls were established earlier.[42], [43] The cells were maintained at 37°C with 5% CO2 in Dulbecco's Modified Eagle Medium (DMEM; Thermo Fischer Scientific, Waltham, MA, USA) supplemented with fetal bovine serum (10%), L‐glutamine (2 mM), penicillin (100 units/mL) and streptomycin (100 μg/mL).
The inhibitory impacts of MYR, AMP, and their sulfate metabolites on OATP1B1 and OATP2B1 were examined using the fluorescent dye substrates disulfopyrene (6,8‐dihydroxy‐1,3‐disulfopyrene) and pyranine, respectively.[42], [43] The day before the transport measurements, A431 cells overexpressing OATP1B1 or OATP2B1 (and their mock‐transfected controls) were seeded onto 96‐well plates at a density of 80 000 cells/well in DMEM (200 μL). Next day, the medium was removed, the cells were washed three times with PBS (pH 7.4, 200 μL) at room temperature, then the cells were pre‐incubated with 50 μL of Hank's Balanced Salt Solution (HBSS, pH 7.4; OATP1B1) or uptake buffer (pH 5.5; OATP2B1) for 5 min at 37°C with or without the flavonoids.[43] The transport reaction was started by adding 50 μL of disulfopyrene‐containing (final concentration: 10 μM) HBSS (OATP1B1 assay), or pyranine‐containing (final concentration: 20 μM) uptake buffer (OATP2B1 assay). After 10 min (OATP1B1) or 15 min (OATP2B1), the transport was stopped by removing the supernatant and washing the cells three times with ice‐cold PBS (200 μL). Then the fluorescence was measured in 200 μL of PBS using an Enspire plate reader (PerkinElmer, Waltham, MA, US) at excitation and emission wavelengths of 460/510 nm. OATP‐dependent transport was determined by subtracting the fluorescence detected in mock control cells from that of OATP‐expressing cells. Transport activity was measured based on the fluorescence signal in the absence of flavonoids (100%). IC50 values were calculated by sigmoidal fitting (Hill1), using the Origin software (version 2018, OriginLab Corporation, Northampton, MA, USA).

SMILES | decrease in the transport activity of OATP1B1 | inhibition of OATP1B1 in words | IC50 | inhibitory strength on OATP1B1 relative to MYR (ratio of IC50 values)
O=C1c2c(O)cc(O)cc2OC(c2cc(O)c(OS(=O)(=O)O)c(O)c2)C1O (stereo not shown) [A4′S, ampelopsin‐4′‐O‐sulfate] | ~70% |  |  | 
O=C1c2c(O)cc(O)cc2O[C@H](c2cc(O)c(O)c(O)c2)[C@H]1O [AMP, ampelopsin] | approximately 40% |  |  | 
O=c1c(O)c(-c2cc(O)c(O)c(OS(=O)(=O)O)c2)oc2cc(O)cc(O)c12 [M3′S, myricetin‐3′‐O‐sulfate] |  | close to complete inhibition | 1.7 µM and 1.66 µM | four‐fold stronger
O=c1c(O)c(-c2cc(O)c(O)c(O)c2)oc2cc(O)cc(O)c12 [MYR, myricetin] |  | close to complete inhibition | 6.4 µM | 
